Experimental data taken from US10751351B2, “Medicament for treatment of diabetic foot infections” (Debiopharm International S.A., priority 2016, dated 2020).
Converted amounts (≈) assume the structure as drawn. Read-outs that look alike come from different tables or passages of the source. Marks after values point to notes of the source that are not given here.

Legend:
[1] = system: Panton-Valentine leukocidin (PVL)-positive MRSA strain; experiment: Staphylococcus aureus-induced acute osteomyelitis in a rat model; format: in vivo; settings: for mean reduction in bacterial burden compared to vehicle controls: after 3 weeks of treatment; for mean reduction in bacterial burden compared to vehicle controls / Bone cultures found negative (rats): Compound A 100 mg/kg po BID, vancomycin 100 mg/kg ip QD, fosfomycin 75 mg/kg ip QD; for Bone cultures found negative (rats): day 28, after 3 weeks of treatment
Protocol: (§1) Minimum inhibitory concentration (MIC) assays were performed by broth microdilution using CLSI guidelines against 20 MRSA strains isolated from bone infections. Experimental osteomyelitis was induced through inoculation of the tibial medullary cavity with 7 log10 colony-forming unit (CFU) of a Panton-Valentine leukocidin (PVL)-positive MRSA strain on day 1. Animals were randomly assigned to the following treatment groups: Compound A 100 mg/kg po BID, vancomycin 100 mg/kg ip QD, fosfomycin 75 mg/kg ip QD and vehicle po BID for 3 weeks starting on day 8 post infection (n=6/group). CFU were enumerated in bone homogenates prior to treatment on day 8 in control animals and at the end of treatment period on day 28. Infected and non-infected bone and plasma samples were collected for quantification of Compound B by LC-MS/MS.

MRSA clinical strain [2] = format: in vivo, rabbit; settings: 4 days of treatment; for bacterial counts in BM and bone, result in words: versus vehicle; for Mean ± SD Δlog10 CFU/g of tissue (day 3-day 7), Bone marrow / Mean ± SD Δlog10 CFU/g of tissue (day 3-day 7), Epiphyseal bone: Compound A 12.5 mg/kg BID iv, vancomycin 100 mg/kg once daily constant iv infusion
Protocol: (§2) MIC assays were performed by broth microdilution using CLSI guidelines. Osteomyelitis (OM) was induced in rabbit through inoculation of the knee with 10^8 CFU of an MRSA clinical strain after bone trepanation. On day 3 post-inoculation, surgical debridement was performed to mimic the clinical procedure. Samples of femoral red bone marrow (BM) and epiphyseal spongy bone were removed and bacterial counts were determined.
On day 7 post-inoculation, the bacterial counts were determined in BM and bone samples. The treatment efficacy was assessed by comparing the bacterial counts before (day 3 after infection) and after (day 7 after infection) the antibacterial therapy. Infected and non-infected BM, bone and plasma samples were collected for quantification of Compound B by LC-MS/MS.

MRSA clinical strain [3] = experiment: Staphylococcus aureus-induced acute osteomyelitis in a rabbit model (2), dose range; format: in vivo
Protocol: (§3) MIC assays were performed by broth microdilution using CLSI guidelines. OM was induced in rabbit through inoculation of the knee with 10^8 CFU/mL of a MRSA clinical strain after bone trepanation. On day 3 post-inoculation, surgical debridement was performed to mimic the clinical procedure. Samples of femoral red bone marrow (BM) and epiphyseal spongy bone were removed and bacterial counts corresponding to day 3 after infection were determined. Treatments were started after 3 days of infection and lasted for 4 days with compound A at the dose level of 12.5, 6.25, 1.6, 0.4 or 0.1 mg/kg BID iv (4 h infusion) or its vehicle BID iv. On day 7 post-inoculation, the bacterial counts were determined in BM and bone samples. The treatment efficacy was assessed by comparing the bacterial counts before (day 3 after infection) and after (day 7 after infection) the antibacterial therapy.

human PDE3A = human PDE3A (Homo sapiens, UniProt Q14432); experiment: PDE3 inhibition assay, Caliper mobility shift (PDE3A); format: biochemical; settings: iFL-cAMP substrate, read-out: absolute IC50 PDE3A
Protocol: (§4) The inhibitory activity of Compound B was assessed against human PDE3A and PDE3B and was compared to cilostazol (a PDE3 inhibitor) in the enzymatic phosphodiesterase assay using Caliper mobility shift assay (2. Card A1, Caldwell C, Min H et al: High-throughput biochemical kinase selectivity assays: panel development and screening applications. J Biomol Screen. (2009); 14(1):31-42.). This method is based on change in charge and electrophoretic separation of product from fluorescently labeled substrate iFL-cAMP. Assays were performed in a 26 μL volume in a 384 well plate. iFL-cAMP substrate was incubated, off-chip, in reaction buffer (100 mM HEPES (pH 7.5), 5 mM MgCl2 and 0.002% Brij35) in the presence of active enzymes (PDE3A and PDE3B) and test compounds at various concentrations. After incubation period, the reaction products and remaining substrate were measured. Detection was performed using EZ reader II. The concentration of compound inducing 50% of the response (IC50) was determined from each individual concentration-response curve using variable slope fits with Prism software (Graph Pad, San Diego, Calif., USA).

human PDE3B = human PDE3B (Homo sapiens, UniProt Q13370); experiment: PDE3 inhibition assay, Caliper mobility shift (PDE3B); format: biochemical; settings: iFL-cAMP substrate, read-out: absolute IC50 PDE3B
Protocol: as §4

[4] = system: rabbit saphenous vein rings; experiment: In vitro vascular relaxation test in rabbit saphenous vein rings pre-contracted with noradrenaline; format: cell-based; settings: for EC50: Oryctolagus cuniculus, saphenous vein rings pre-contracted with 1 μM noradrenaline, read-out: pD2 value (−log EC50) (converted); for relaxation of 1 μM noradrenaline pre-contracted preparations: DMSO-treated group −29±11%
Protocol: The vascular relaxing effects of Compound B were evaluated using isolated rabbit saphenous venous tissue. Rabbits were sacrificed by a blow to the head followed by a cervical dislocation and exsanguination. A segment of the saphenous vein was carefully excised. Vein was cleaned of all fat and connective tissue and cut into 2.5 mm long rings. The rings were then mounted horizontally in 20-ml organ baths filled with Krebs's solution maintained at 37.7±0.5° C. and gassed with a mixture of 95% O2 and 5% CO2. Krebs's solution was made up as follows (mM): NaCl: 118.0/KCl: 5.0/CaCl2): 2.6/MgSO4 (7H2O): 1.2/NaHCO3: 24.9/KH2PO4: 1.2/glucose: 10.0. pH is 7.40±0.05. The rings were allowed to equilibrate for 60 minutes at an optimal resting tension of 1 g. Contractile tensions were measured using an isometric force transducer and signals were analyzed using a specialized software (IOX version 1.554, EMKA Technologies, Paris, France). Tissue viability was verified using three challenges to 80 mM KCl. The maximal contraction was reached after 3 challenges of KCl. Endothelium integrity was verified on the basis of the relaxation produced by 1 μM acetylcholine in rings precontracted with 1 μM noradrenaline. All experiments were performed on […] rings with endothelium. The method evaluated the effect of the test substance in pre-contracted preparations. The preparations were pre-contracted with an agonist (Noradrenaline at 1 μM) until a stable tonic contraction was reached. Six cumulative concentrations of the test or comparison substances were then added into the bath and relaxations were recorded to plot a concentration-response curve. Three preparations were exposed to DMSO, 0.1% over 6 consecutive periods for comparison to Compound B and cilostazol. Four preparations (obtained from 4 animals) were studied for the test and comparison substances. Three preparations were studied for the DMSO-treated group. The relaxation response to test substance was expressed as the percentage of inhibition of agonist-induced pre-contraction. The concentration of agonist inducing 50% of the maximum response (EC50) was determined from each individual concentration-response curve using linear regression. For each ring, the agonist potency (pD2) was calculated as −log (EC50).

[5] = Bone and plasma quantification of Compound B by LC-MS/MS in rat osteomyelitis model; settings: in vivo, Compound A 100 mg/kg po BID, no difference between infected and non-infected tibias, read-out: bone:plasma ratio of Compound B
Protocol: as §1

MRSA clinical strain [6] = experiment: MIC by broth microdilution against the MRSA isolate (Example 4); format: cell-based; settings: Staphylococcus aureus, read-out: MIC for the MRSA isolate
Protocol: as §2

MRSA clinical strain [7] = experiment: MIC by broth microdilution against the MRSA isolate (Example 5); format: cell-based; settings: Staphylococcus aureus, Example 5 isolate
Protocol: as §3

[8] = 0.1 mg/kg BID iv, 4 days of treatment, 1 animal
[9] = 0.4 mg/kg BID iv, 4 days of treatment
[10] = 1.6 mg/kg BID iv, 4 days of treatment
[11] = 6.25 mg/kg BID iv, 4 days of treatment
[12] = 12.5 mg/kg BID iv, 4 days of treatment

Chain of human PDE3B (Q13370 whole entry): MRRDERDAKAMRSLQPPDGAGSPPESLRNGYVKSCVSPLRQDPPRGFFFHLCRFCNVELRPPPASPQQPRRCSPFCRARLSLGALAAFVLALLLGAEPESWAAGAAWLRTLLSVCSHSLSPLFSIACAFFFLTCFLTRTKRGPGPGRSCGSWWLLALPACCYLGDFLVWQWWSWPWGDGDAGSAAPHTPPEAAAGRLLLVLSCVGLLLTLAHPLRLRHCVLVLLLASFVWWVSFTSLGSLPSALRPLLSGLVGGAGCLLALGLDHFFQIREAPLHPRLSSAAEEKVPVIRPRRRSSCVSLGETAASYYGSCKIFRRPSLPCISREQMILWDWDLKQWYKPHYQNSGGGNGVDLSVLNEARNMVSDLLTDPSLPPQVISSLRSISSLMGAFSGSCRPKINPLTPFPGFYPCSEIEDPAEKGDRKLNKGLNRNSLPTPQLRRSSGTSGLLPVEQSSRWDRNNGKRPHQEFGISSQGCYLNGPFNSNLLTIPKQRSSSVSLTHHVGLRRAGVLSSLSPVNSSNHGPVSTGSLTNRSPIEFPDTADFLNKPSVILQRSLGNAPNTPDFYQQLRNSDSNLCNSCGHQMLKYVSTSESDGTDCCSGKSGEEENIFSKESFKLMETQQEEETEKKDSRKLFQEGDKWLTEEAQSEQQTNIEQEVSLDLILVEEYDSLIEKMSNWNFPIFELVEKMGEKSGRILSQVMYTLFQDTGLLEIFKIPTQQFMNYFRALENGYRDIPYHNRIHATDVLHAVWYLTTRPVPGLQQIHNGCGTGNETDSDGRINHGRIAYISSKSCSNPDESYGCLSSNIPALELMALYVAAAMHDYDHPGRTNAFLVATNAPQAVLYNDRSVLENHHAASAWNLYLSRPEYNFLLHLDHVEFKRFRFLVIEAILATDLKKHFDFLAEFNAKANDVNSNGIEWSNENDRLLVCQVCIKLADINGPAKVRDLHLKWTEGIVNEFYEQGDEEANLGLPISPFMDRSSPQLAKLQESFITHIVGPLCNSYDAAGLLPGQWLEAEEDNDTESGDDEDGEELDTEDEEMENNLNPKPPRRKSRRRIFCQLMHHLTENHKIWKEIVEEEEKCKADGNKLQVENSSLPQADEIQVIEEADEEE
Chain of human PDE3A (Q14432 whole entry): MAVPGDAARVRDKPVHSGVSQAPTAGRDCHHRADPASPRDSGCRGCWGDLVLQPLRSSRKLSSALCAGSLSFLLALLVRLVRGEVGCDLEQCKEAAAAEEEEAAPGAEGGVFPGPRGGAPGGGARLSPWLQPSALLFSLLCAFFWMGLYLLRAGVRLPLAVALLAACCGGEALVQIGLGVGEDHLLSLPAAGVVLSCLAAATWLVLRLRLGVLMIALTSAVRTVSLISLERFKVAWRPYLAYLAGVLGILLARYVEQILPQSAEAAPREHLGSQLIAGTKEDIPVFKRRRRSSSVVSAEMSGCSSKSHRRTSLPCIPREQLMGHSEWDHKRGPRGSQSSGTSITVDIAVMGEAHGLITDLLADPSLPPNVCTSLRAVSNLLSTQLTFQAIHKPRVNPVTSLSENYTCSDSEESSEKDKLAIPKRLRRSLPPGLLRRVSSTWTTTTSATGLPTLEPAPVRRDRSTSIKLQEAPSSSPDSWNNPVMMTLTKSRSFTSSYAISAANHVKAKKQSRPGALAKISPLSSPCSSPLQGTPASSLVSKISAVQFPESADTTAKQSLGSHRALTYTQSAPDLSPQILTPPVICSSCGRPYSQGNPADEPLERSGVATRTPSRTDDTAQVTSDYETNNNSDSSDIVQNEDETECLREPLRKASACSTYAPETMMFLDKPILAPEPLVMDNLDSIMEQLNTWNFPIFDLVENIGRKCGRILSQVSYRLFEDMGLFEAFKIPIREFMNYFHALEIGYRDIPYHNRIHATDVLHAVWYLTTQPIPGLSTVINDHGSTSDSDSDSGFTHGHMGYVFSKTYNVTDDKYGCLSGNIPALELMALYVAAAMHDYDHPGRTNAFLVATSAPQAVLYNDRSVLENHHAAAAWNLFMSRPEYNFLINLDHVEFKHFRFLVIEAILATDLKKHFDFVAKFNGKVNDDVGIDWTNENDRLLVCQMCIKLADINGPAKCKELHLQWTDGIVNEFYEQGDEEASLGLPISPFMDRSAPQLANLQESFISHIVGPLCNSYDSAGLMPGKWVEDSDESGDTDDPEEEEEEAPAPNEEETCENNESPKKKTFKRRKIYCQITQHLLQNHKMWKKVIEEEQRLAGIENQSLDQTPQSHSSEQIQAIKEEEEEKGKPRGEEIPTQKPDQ

Cc1c(CN(C)C(=O)/C=C/c2cnc3c(c2)CCC(=O)N3COP(=O)(O)O)oc2ccccc12 [Compound A, {6-[(1E)-3-{methyl[(3-methyl-1-benzofuran-2-yl)methyl]amino}-3-oxoprop-1-en-1-yl]-2-oxo-3,4-dihydro-1,8-naphthyridin-1(2H)-yl}methyl dihydrogen phosphate]
mean reduction in bacterial burden compared to vehicle controls [1]: 2.8 log10 CFU/g of bone
development of resistance ([1]; after the 3-week treatment period): No development of resistance
Bone cultures found negative (rats) [1]: 2/6
bacterial counts in BM and bone, result in words (MRSA clinical strain [2]): significant anti-staphylococcal activity
Mean ± SD Δlog10 CFU/g of tissue (day 3-day 7), Bone marrow (MRSA clinical strain [2]): −3.62 ± 0.67 log10 CFU/g of tissue
Mean ± SD Δlog10 CFU/g of tissue (day 3-day 7), Epiphyseal bone (MRSA clinical strain [2]): −2.52 ± 1.25 log10 CFU/g of tissue
Δlog10 CFU/g of tissue (day 3-day 7), Bone marrow (MRSA clinical strain [3]; [8]): −0.74 log10 CFU/g of tissue
Δlog10 CFU/g of tissue (day 3-day 7), Epiphyseal bone (MRSA clinical strain [3]; [8]): −1.02 log10 CFU/g of tissue
Mean ± SD Δlog10 CFU/g of tissue (day 3-day 7), Bone marrow (MRSA clinical strain [3]; [9]): −2.03 ± 1.11 ^a log10 CFU/g of tissue
Mean ± SD Δlog10 CFU/g of tissue (day 3-day 7), Epiphyseal bone (MRSA clinical strain [3]; [9]): −1.23 ± 0.93 ^b log10 CFU/g of tissue
Mean ± SD Δlog10 CFU/g of tissue (day 3-day 7), Bone marrow (MRSA clinical strain [3]; [10]): −3.18 ± 0.74 ^a log10 CFU/g of tissue
Mean ± SD Δlog10 CFU/g of tissue (day 3-day 7), Epiphyseal bone (MRSA clinical strain [3]; [10]): −1.53 ± 1.53 ^a log10 CFU/g of tissue
Mean ± SD Δlog10 CFU/g of tissue (day 3-day 7), Bone marrow (MRSA clinical strain [3]; [11]): −3.45 ± 1.53 ^a log10 CFU/g of tissue
Mean ± SD Δlog10 CFU/g of tissue (day 3-day 7), Epiphyseal bone (MRSA clinical strain [3]; [11]): −2.17 ± 0.72 ^a log10 CFU/g of tissue
bacterial titers in BM and bone, result in words (MRSA clinical strain [3]; 12.5 mg/kg): significant reduction in bacterial titers
Mean ± SD Δlog10 CFU/g of tissue (day 3-day 7), Bone marrow (MRSA clinical strain [3]; [12]): −3.42 ± 0.96 ^a log10 CFU/g of tissue
Mean ± SD Δlog10 CFU/g of tissue (day 3-day 7), Epiphyseal bone (MRSA clinical strain [3]; [12]): −1.76 ± 0.74 ^a log10 CFU/g of tissue
bacterial counts in BM and bone, result in words (MRSA clinical strain [3]; lower doses 6.25, 1.6, 0.4 and 0.1 mg/kg IV BID, down to the 0.4 mg/kg dose): significant reduction in bacterial counts

Cc1c(CN(C)C(=O)/C=C/c2cnc3c(c2)CCC(=O)N3)oc2ccccc12 [Compound B, (E)-N-methyl-N-((3-methylbenzofuran-2-yl)methyl)-3-(7-oxo-5,6,7,8-tetrahydro-1,8-naphthyridin-3-yl)acrylamide]
IC50 (human PDE3A): 0.6 µM
IC50 (human PDE3B): 0.703 µM
EC50 [4]: 1.41 µM
relaxation of 1 μM noradrenaline pre-contracted preparations ([4]; at 10 μM): −69±9%
relaxant effects compared to vehicle control group (DMSO) ([4]; at 3 and 10 μM): concentration-dependently relaxed
relaxant effects compared to vehicle control group (DMSO) ([4]; from 0.03 to 1 μM): no relaxant effects
Kp [5]: 0.06 to 0.27
MIC (MRSA clinical strain [6]; Example 4 isolate): 4 ng/mL (≈ 0.0107 µM)
MIC (MRSA clinical strain [7]): 4 ng/mL (≈ 0.0107 µM)
development of resistance (MRSA clinical strain [3]; after the 4-day treatment period): No development of resistance

O=C1CCc2cc(OCCCCc3nnnn3C3CCCCC3)ccc2N1 [cilostazol, reference compound]
IC50 (human PDE3A): 0.416 µM
IC50 (human PDE3B): 0.912 µM
EC50 [4]: 0.832 µM
relaxation of 1 μM noradrenaline pre-contracted preparations ([4]; at 100 μM): −70±7%
relaxant effects compared to vehicle control group (DMSO) ([4]; at 10 and 100 μM): concentration-dependently relaxed
relaxant effects compared to vehicle control group (DMSO) ([4]; from 0.001 to 1 μM): no relaxant effects

C[C@@H]1O[C@@H]1P(=O)(O)O [fosfomycin]
mean reduction in bacterial burden compared to vehicle controls [1]: 3.3 log10 CFU/g of bone
Bone cultures found negative (rats) [1]: 2/6

CN[C@H](CC(C)C)C(=O)N[C@H]1C(=O)N[C@@H](CC(N)=O)C(=O)N[C@H]2C(=O)N[C@H]3C(=O)N[C@H](C(=O)N[C@H](C(=O)O)c4cc(O)cc(O)c4-c4cc3ccc4O)[C@H](O)c3ccc(c(Cl)c3)Oc3cc2cc(c3O[C@@H]2O[C@H](CO)[C@@H](O)[C@H](O)[C@H]2O[C@H]2C[C@](C)(N)[C@H](O)[C@H](C)O2)Oc2ccc(cc2Cl)[C@H]1O [vancomycin, reference compound]
mean reduction in bacterial burden compared to vehicle controls [1]: no statistically significant reduction
Bone cultures found negative (rats) [1]: 0/6
MIC (MRSA clinical strain [6]): 1000 ng/mL (≈ 0.69 µM)
bacterial counts in BM and bone, result in words (MRSA clinical strain [2]): No significant difference
Mean ± SD Δlog10 CFU/g of tissue (day 3-day 7), Bone marrow (MRSA clinical strain [2]): −1.05 ± 1.30 log10 CFU/g of tissue
Mean ± SD Δlog10 CFU/g of tissue (day 3-day 7), Epiphyseal bone (MRSA clinical strain [2]): −0.49 ± 0.65 log10 CFU/g of tissue
